Laboratory results published in patent publication US11325889B2, “Substituted 3-((3-aminophenyl)amino)piperidine-2,6-dione compounds, compositions thereof, and methods of treatment therewith” (Celgene Corporation, priority 2018, dated 2022).
Read-outs that look alike come from different tables or passages of the source.

Target: T1, AR protein in VCaP cells (Homo sapiens, UniProt P10275)
T1 construct: endogenous in cells; host or cells: VCaP cells
T1 sequence (P10275 1-920): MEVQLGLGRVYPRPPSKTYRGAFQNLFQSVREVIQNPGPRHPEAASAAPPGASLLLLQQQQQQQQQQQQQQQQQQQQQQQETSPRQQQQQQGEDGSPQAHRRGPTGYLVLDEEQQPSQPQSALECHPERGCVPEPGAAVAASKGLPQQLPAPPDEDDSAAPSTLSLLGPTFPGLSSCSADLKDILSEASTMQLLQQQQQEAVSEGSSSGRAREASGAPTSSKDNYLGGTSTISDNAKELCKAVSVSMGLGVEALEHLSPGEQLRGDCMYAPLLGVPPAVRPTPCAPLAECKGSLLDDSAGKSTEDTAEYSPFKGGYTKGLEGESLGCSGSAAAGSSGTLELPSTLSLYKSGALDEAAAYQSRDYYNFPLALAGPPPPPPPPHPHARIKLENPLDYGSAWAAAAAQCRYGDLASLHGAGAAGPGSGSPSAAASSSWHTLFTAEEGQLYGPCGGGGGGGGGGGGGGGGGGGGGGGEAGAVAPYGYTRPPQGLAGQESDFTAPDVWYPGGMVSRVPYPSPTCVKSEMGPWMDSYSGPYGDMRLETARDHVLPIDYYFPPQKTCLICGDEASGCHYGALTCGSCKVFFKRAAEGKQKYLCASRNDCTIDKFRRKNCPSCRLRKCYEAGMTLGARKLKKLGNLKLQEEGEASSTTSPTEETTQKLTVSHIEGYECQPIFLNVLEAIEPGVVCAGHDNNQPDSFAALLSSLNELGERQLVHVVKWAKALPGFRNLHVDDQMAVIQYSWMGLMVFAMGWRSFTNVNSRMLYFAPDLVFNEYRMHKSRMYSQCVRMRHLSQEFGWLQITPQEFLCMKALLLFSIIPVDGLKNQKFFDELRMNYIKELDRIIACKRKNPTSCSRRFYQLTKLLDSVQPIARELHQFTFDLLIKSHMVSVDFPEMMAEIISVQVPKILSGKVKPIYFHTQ
Assay: VCAP AR Degradation Assay (AR ELISA, 24 h)
Type: cell-based
Conditions: for Y (lowest measured AR level normalized to DMSO control): AR degradation efficiency; for DC50: concentration of compound when AR level = 50% of DMSO control
Outline: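 VCaP cells in DMEM with 8% FBS exposed for 24 h at 37° C to a 10-point, 1:3 series (final top concentration […]; 0.1% DMSO control). Lysate AR measured by sandwich ELISA and normalized to DMSO as percent of control. DC50, EC50 and lowest AR level (Y) from four-parameter logistic fit.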

## CCc1cc(N2C(=S)N(c3cnc(C#N)c(C(F)(F)F)c3)C(=O)C2(C)C)ccc1OC1CCN(CC(=O)Nc2cc(NC3CCC(=O)NC3=O)ccc2F)CC1 (stereo not drawn) [Cmpd 52, 2-(4-(4-(3-(6-cyano-5-(trifluoromethyl)pyridin-3-yl)-5,5-dimethyl-4-oxo-2-thioxoimidazolidin-1-yl)-2-ethylphenoxy)piperidin-1-yl)-N-(5-(2,6-dioxopiperidin-3-ylamino)-2-fluorophenyl)acetamide]
  Y (lowest measured AR level normalized to DMSO control): *** (35%<Y<50%)
read-out: DC50
  DC50: 100 to 500 nM

## CCc1cc(N2C(=S)N(c3cnc(C#N)c(C(F)(F)F)c3)C(=O)C2(C)C)ccc1OCC[C@@H]1C[C@H]2CC[C@@H](C1)N2CC(=O)Nc1cccc(NC2CCC(=O)NC2=O)c1 (stereo partly drawn) [Cmpd 66, 2-((1R,3s,5S)-3-(2-(4-(3-(6-cyano-5-(trifluoromethyl)pyridin-3-yl)-5,5-dimethyl-4-oxo-2-thioxoimidazolidin-1-yl)-2-ethylphenoxy)ethyl)-8-azabicyclo[3.2.1]octan-8-yl)-N-(3-(2,6-dioxopiperidin-3-ylamino)phenyl)acetamide]
  Y (lowest measured AR level normalized to DMSO control): * (0<Y<=25%)
  DC50: < 100 nM

## CCc1cc(N2C(=S)N(c3ccc(C#N)c(C(F)(F)F)c3)C(=O)C23CCC3)ccc1OCCC1CCN([C@@H](C)C(=O)Nc2cccc(NC3CCC(=O)NC3=O)c2)CC1 (stereo partly drawn) [Cmpd 59, (2S)-2-(4-(2-(4-(7-(4-cyano-3-(trifluoromethyl)phenyl)-8-oxo-6-thioxo-5,7-diazaspiro[3.4]octan-5-yl)-2-ethylphenoxy)ethyl)piperidin-1-yl)-N-(3-(2,6-dioxopiperidin-3-ylamino)phenyl)propanamide]
  Y (lowest measured AR level normalized to DMSO control): ** (25%<Y<=35%)
read-out: DC50
  DC50: 100 to 500 nM

## CCc1cc(N2C(=S)N(c3cnc(C#N)c(C(F)(F)F)c3)C(=O)C2(C)C)ccc1OC1CCN(CC(=O)Nc2cccc(NC3CCC(=O)NC3=O)c2)CC1 (stereo not drawn) [Cmpd 53, 2-(4-(4-(3-(6-cyano-5-(trifluoromethyl)pyridin-3-yl)-5,5-dimethyl-4-oxo-2-thioxoimidazolidin-1-yl)-2-ethylphenoxy)piperidin-1-yl)-N-(3-(2,6-dioxopiperidin-3-ylamino)phenyl)acetamide]
  Y (lowest measured AR level normalized to DMSO control): ** (25%<Y<=35%)
read-out: DC50
  DC50: < 100 nM

## CCc1cc(N2C(=S)N(c3cnc(C#N)c(C(F)(F)F)c3)C(=O)C2(C)C)ccc1OCCC1CCN([C@@H](C)C(=O)Nc2cccc(N[C@@H]3CCC(=O)NC3=O)c2)CC1 [Cmpd 44, (S)-2-(4-(2-(4-(3-(6-cyano-5-(trifluoromethyl)pyridin-3-yl)-5,5-dimethyl-4-oxo-2-thioxoimidazolidin-1-yl)-2-ethylphenoxy)ethyl)piperidin-1-yl)-N-(3-((R)-2,6-dioxopiperidin-3-ylamino)phenyl)propanamide]
  Y (lowest measured AR level normalized to DMSO control): * (0<Y<=25%)
read-out: DC50
  DC50: < 100 nM

## CCc1cc(N2C(=S)N(c3ccc(C#N)c(C(F)(F)F)c3)C(=O)C2(C)C)cnc1O[C@H]1C[C@@H](C)N(CC(=O)Nc2cccc(NC3CCC(=O)NC3=O)c2)[C@@H](C)C1 (stereo partly drawn) [Cmpd 95, 2-((2R,4r,6S)-4-((5-(3-(4-cyano-3-(trifluoromethyl)phenyl)-5,5-dimethyl-4-oxo-2-thioxoimidazolidin-1-yl)-3-ethylpyridin-2-yl)oxy)-2,6-dimethylpiperidin-1-yl)-N-(3-((2,6-dioxopiperidin-3-yl)amino)phenyl)acetamide]
  Y (lowest measured AR level normalized to DMSO control): ** (25%<Y<=35%)
read-out: DC50
  DC50: 500 to 1000 nM

## CCc1cc(N2C(=S)N(c3ccc(C#N)c(C(F)(F)F)c3)C(=O)C2(C)C)ccc1OCC[C@H]1CCN(CC(=O)Nc2cc(NC3CCC(=O)NC3=O)ccc2F)[C@H](C)C1 (stereo partly drawn) [Cmpd 82, 2-((2R,4S)-4-(2-(4-(3-(4-cyano-3-(trifluoromethyl)phenyl)-5,5-dimethyl-4-oxo-2-thioxoimidazolidin-1-yl)-2-ethylphenoxy)ethyl)-2-methylpiperidin-1-yl)-N-(5-(2,6-dioxopiperidin-3-ylamino)-2-fluorophenyl)acetamide]
  Y (lowest measured AR level normalized to DMSO control): ** (25%<Y<=35%)
read-out: DC50
  DC50: 100 to 500 nM

## CCc1cc(N2C(=S)N(c3ccc(C#N)c(C(F)(F)F)c3)C(=O)C23CCC3)ccc1OCCC1CCN([C@H](C)C(=O)Nc2cc(NC3CCC(=O)NC3=O)ccc2F)CC1 (stereo partly drawn) [Cmpd 75, (2R)-2-(4-(2-(4-(7-(4-cyano-3-(trifluoromethyl)phenyl)-8-oxo-6-thioxo-5,7-diazaspiro[3.4]octan-5-yl)-2-ethylphenoxy)ethyl)piperidin-1-yl)-N-(5-(2,6-dioxopiperidin-3-ylamino)-2-fluorophenyl)propanamide]
  Y (lowest measured AR level normalized to DMSO control): ** (25%<Y<=35%)
read-out: DC50
  DC50: 100 to 500 nM

## CCc1cc(N2C(=S)N(c3cnc(C#N)c(C(F)(F)F)c3)C(=O)C2(C)C)ccc1OCCC1CCN(CC(=O)Nc2cc(C#N)cc(NC3CCC(=O)NC3=O)c2)CC1 (stereo not drawn) [Cmpd 39, N-(3-cyano-5-(2,6-dioxopiperidin-3-ylamino)phenyl)-2-(4-(2-(4-(3-(6-cyano-5-(trifluoromethyl)pyridin-3-yl)-5,5-dimethyl-4-oxo-2-thioxoimidazolidin-1-yl)-2-ethylphenoxy)ethyl)piperidin-1-yl)acetamide]
  Y (lowest measured AR level normalized to DMSO control): ** (25%<Y<=35%)
read-out: DC50
  DC50: < 100 nM

## CCc1cc(N2C(=S)N(c3ccc(C#N)c(C(F)(F)F)c3)C(=O)C2(C)C)ccc1OCCC1CCN([C@@H](C)C(=O)Nc2cc(Cl)cc(NC3CCC(=O)NC3=O)c2)CC1 (stereo partly drawn) [Cmpd 26, (2S)-N-(3-chloro-5-(2,6-dioxopiperidin-3-ylamino)phenyl)-2-(4-(2-(4-(3-(4-cyano-3-(trifluoromethyl)phenyl)-5,5-dimethyl-4-oxo-2-thioxoimidazolidin-1-yl)-2-ethylphenoxy)ethyl)piperidin-1-yl)propanamide]
  Y (lowest measured AR level normalized to DMSO control): * (0<Y<=25%)
read-out: DC50
  DC50: 100 to 500 nM

## CC1(C)C(=O)N(c2ccc(C#N)c(C(F)(F)F)c2)C(=S)N1c1ccc(OCCC2CCN(CC(=O)Nc3cc(Cl)cc(NC4CCC(=O)NC4=O)c3)CC2)c(F)c1 (stereo not drawn) [Cmpd 10, N-(3-chloro-5-(2,6-dioxopiperidin-3-ylamino)phenyl)-2-(4-(2-(4-(3-(4-cyano-3-(trifluoromethyl)phenyl)-5,5-dimethyl-4-oxo-2-thioxoimidazolidin-1-yl)-2-fluorophenoxy)ethyl)piperidin-1-yl)acetamide]
  Y (lowest measured AR level normalized to DMSO control): ** (25%<Y<=35%)
read-out: DC50
  DC50: 100 to 500 nM

## CC1(C)C(=O)N(c2cnc(C#N)c(C(F)(F)F)c2)C(=S)N1c1ccc(OCC2CCN(CC(=O)Nc3cccc(NC4CCC(=O)NC4=O)c3)CC2)cc1 (stereo not drawn) [Cmpd 6, 2-(4-((4-(3-(6-cyano-5-(trifluoromethyl)pyridin-3-yl)-5,5-dimethyl-4-oxo-2-thioxoimidazolidin-1-yl)phenoxy)methyl)piperidin-1-yl)-N-(3-(2,6-dioxopiperidin-3-ylamino)phenyl)acetamide]
  Y (lowest measured AR level normalized to DMSO control): ** (25%<Y<=35%)
read-out: DC50
  DC50: 100 to 500 nM

## CCc1cc(N2C(=S)N(c3cnc(C#N)c(C(F)(F)F)c3)C(=O)C23CCC3)ccc1OCCC1CCN([C@H](C)C(=O)Nc2cc(NC3CCC(=O)NC3=O)ccc2F)CC1 (stereo partly drawn) [Cmpd 86, (2R)-2-(4-(2-(4-(7-(6-cyano-5-(trifluoromethyl)pyridin-3-yl)-8-oxo-6-thioxo-5,7-diazaspiro[3.4]octan-5-yl)-2-ethylphenoxy)ethyl)piperidin-1-yl)-N-(5-(2,6-dioxopiperidin-3-ylamino)-2-fluorophenyl)propanamide]
  Y (lowest measured AR level normalized to DMSO control): * (0<Y<=25%)
read-out: DC50
  DC50: 100 to 500 nM

## CCc1cc(N2C(=S)N(c3ccc(C#N)c(C(F)(F)F)c3)C(=O)C2(C)C)ccc1OCCC1CCN(CC(=O)Nc2cc(C#N)cc(NC3CCC(=O)NC3=O)c2)CC1 (stereo not drawn) [Cmpd 40, 2-(4-(2-(4-(3-(4-cyano-3-(trifluoromethyl)phenyl)-5,5-dimethyl-4-oxo-2-thioxoimidazolidin-1-yl)-2-ethylphenoxy)ethyl)piperidin-1-yl)-N-(3-cyano-5-(2,6-dioxopiperidin-3-ylamino)phenyl)acetamide]
  Y (lowest measured AR level normalized to DMSO control): ** (25%<Y<=35%)
read-out: DC50
  DC50: 100 to 500 nM

## CCc1cc(N2C(=S)N(c3ccc(C#N)c(C(F)(F)F)c3)C(=O)C2(C)C)ccc1OCC1CCN(CC(=O)Nc2cccc(NC3CCC(=O)NC3=O)c2)CC1 (stereo not drawn) [Cmpd 11, 2-(4-((4-(3-(4-cyano-3-(trifluoromethyl)phenyl)-5,5-dimethyl-4-oxo-2-thioxoimidazolidin-1-yl)-2-ethylphenoxy)methyl)piperidin-1-yl)-N-(3-(2,6-dioxopiperidin-3-ylamino)phenyl)acetamide]
  Y (lowest measured AR level normalized to DMSO control): ** (25%<Y<=35%)
read-out: DC50
  DC50: 100 to 500 nM
